In one assay the test system is Zymoseptoria tritici. The experiment in a line: Leaf Blotch of Wheat (SEPTTR) fungicidal activity. It is filed as in vivo. Particulars: for pest or weed control at 121.5 g/ha: Low Volume application, 121.5 g/H. As for the experimental part: Example A: Evaluation of Fungicidal Activity: Leaf Blotch of Wheat (Zymoseptoria tritici; Bayer Code […]) Technical grades of materials were dissolved in acetone, which were then mixed with nine volumes of H2O containing 110 ppm Triton X-100. The fungicide solutions were applied onto wheat seedlings using an automated booth sprayer to run-off. All sprayed plants were allowed to air dry prior to further handling. All fungicides were evaluated using the aforementioned method for their activity vs. all target diseases, unless stated otherwise. Wheat leaf blotch and brown rust activity were also evaluated using track spray applications, in which case the fungicides were formulated as EC formulations, containing 0.1% Trycol 5941 in the spray solutions. Wheat plants (variety Yuma) were grown from seed in a greenhouse in 50% mineral soil/50% soil-less Metro mix until the first leaf was fully emerged, with 7-10 seedlings per pot. These plants were inoculated with an aqueous spore suspension of Zymoseptoria tritici either prior to or after fungicide treatments. After inoculation the plants were kept in 100% relative humidity (one day in a dark dew chamber followed by two to three days in a lighted dew chamber at 20° C.) to permit spores to germinate and infect the leaf. The plants were then transferred to a greenhouse set at 20° C. for disease to develop. When disease symptoms were fully expressed on the 1st leaves of untreated plants, infection levels were assessed on a scale of 0 to 100 percent disease severity. Percent disease control was calculated using the ratio of disease severity on treated plants relative to untreated plants.

The subject of another assay is Puccinia triticina. The experiment in a line: Wheat Brown Rust (PUCCRT) fungicidal activity. It is filed as in vivo. Particulars: for pest or weed control at 100 ppm: High Volume application; for pest or weed control at 121.5 g/ha: Low Volume application, 121.5 g/H. As for the experimental part:
Technical grades of materials were dissolved in acetone, which were then mixed with nine volumes of H2O containing 110 ppm Triton X-100. The fungicide solutions were applied onto wheat seedlings using an automated booth sprayer to run-off. All sprayed plants were allowed to air dry prior to further handling. All fungicides were evaluated using the aforementioned method for their activity vs. all target diseases, unless stated otherwise. Wheat leaf blotch and brown rust activity were also evaluated using track spray applications, in which case the fungicides were formulated as EC formulations, containing 0.1% Trycol 5941 in the spray solutions. Wheat plants (variety Yuma) were grown from seed in a greenhouse in 50% mineral soil/50% soil-less Metro mix until the first leaf was fully emerged, with 7-10 seedlings per pot. These plants were inoculated with an aqueous spore suspension of Zymoseptoria tritici either prior to or after fungicide treatments. After inoculation the plants were kept in 100% relative humidity (one day in a dark dew chamber followed by two to three days in a lighted dew chamber at 20° C.) to permit spores to germinate and infect the leaf. The plants were then transferred to a greenhouse set at 20° C. for disease to develop. When disease symptoms were fully expressed on the 1st leaves of untreated plants, infection levels were assessed on a scale of 0 to 100 percent disease severity. Percent disease control was calculated using the ratio of disease severity on treated plants relative to untreated plants. Example B: Evaluation of Fungicidal Activity: Wheat Brown Rust (Puccinia triticina; Bayer Code PUCCRT) Wheat plants (variety Yuma) were grown from seed in a greenhouse in 50% mineral soil/50% soil-less Metro mix until the first leaf was fully emerged, with 7-10 seedlings per pot. These plants were inoculated with an aqueous spore suspension of Puccinia triticina either prior to or after fungicide treatments. After inoculation the plants were kept in a dark dew room at 22° C. with 100% relative humidity overnight to permit spores to germinate and infect the leaf. The plants were then transferred to a greenhouse set at 24° C. for disease to develop. Fungicide formulation, application and disease assessment followed the procedures as described in the Example A.

[1] abbreviates: 24 h, High Volume application, 100 ppm, wheat leaf blotch, 1 day protectant, read-out: SEPTTR disease control, 1DP (1 Day Protectant).
The mark [2] stands for this setting: 72 h, High Volume application, 100 ppm, wheat leaf blotch, 3 day curative, read-out: SEPTTR disease control, 3DC (3 Day Curative).
The mark [3] stands for this setting: 24 h, 1 day protectant, read-out: PUCCRT disease control, 1DP (1 Day Protectant).
[4] abbreviates: 72 h, 3 day curative, read-out: PUCCRT disease control, 3DC (3 Day Curative).
Setting [5] is: 24 h, wheat leaf blotch, 1 day protectant, read-out: SEPTTR disease control, 1DP (1 Day Protectant).
Where [6] appears, read: 72 h, wheat leaf blotch, 3 day curative, read-out: SEPTTR disease control, 3DC (3 Day Curative).

Like-named read-outs stand apart in the source and are kept apart here.

Regarding `COc1ccnc(C(=O)N[C@H]2CCCC[C@H](OC)[C@@H](OCC(C)C)[C@H](C)OC2=O)c1OCOC(C)=O` [Compound 12], the pest or weed control at 100 ppm with Zymoseptoria tritici (setting [1]), in the assay on Zymoseptoria tritici (setting [2]), in the assay on Puccinia triticina (setting [3]) and in the assay with Puccinia triticina (setting [4]) was over 80% throughout.

`COc1ccnc(C(=O)N[C@H]2CCCC[C@H](OCC(C)C)[C@@H](Oc3ccccc3)[C@H](C)OC2=O)c1O` [Compound 93]: the pest or weed control at 100 ppm was over 80% with Zymoseptoria tritici (setting [1]), under 80% in the assay with Zymoseptoria tritici (setting [2]), over 80% in the assay on Puccinia triticina (setting [3]) and over 80% with Puccinia triticina (setting [4]).

As for `CCCCO[C@H]1CCOC[C@H](NC(=O)c2nccc(OC)c2O)C(=O)O[C@@H](C)[C@@H]1OC(=O)C(C)C` [Compound 83], the pest or weed control at 100 ppm with Zymoseptoria tritici (setting [1]) is under 80%; with Zymoseptoria tritici (setting [2]), over 80%; with Puccinia triticina (setting [3]), over 80%; with Puccinia triticina (setting [4]), over 80%.

Take `CCC[C@H]1CCCC[C@H](NC(=O)c2nccc(OC)c2O)C(=O)O[C@@H](C)[C@@H]1OCC(C)C` [compound 105, 3-hydroxy-N-((3S,8S,9R,10S)-9-isobutoxy-10-methyl-2-oxo-8-propyloxecan-3-yl)-4-methoxypicolinamide]: the pest or weed control at 100 ppm in the assay on Zymoseptoria tritici (24 h, read-out: SEPTTR disease control, 1DP (1 Day Protectant)) was under 80%; with Zymoseptoria tritici (72 h, read-out: SEPTTR disease control, 3DC (3 Day Curative)), under 80%; in the assay with Puccinia triticina (setting [3]), under 80%; in the assay with Puccinia triticina (setting [4]) it was under 80%.

For `COc1ccnc(C(=O)N[C@H]2CCOC[C@H](Oc3ccccc3)[C@@H](Oc3ccccc3)[C@H](C)OC2=O)c1O` [Compound 110], the pest or weed control at 100 ppm with Zymoseptoria tritici (setting [1]), in the assay with Puccinia triticina (setting [3]) and with Puccinia triticina (setting [4]) was over 80% throughout.

With `CC[C@H]1CCOC[C@H](NC(=O)c2nccc(OC)c2O)C(=O)O[C@@H](C)[C@@H]1OCC(C)C` [Compound 131], the results for the pest or weed control at 100 ppm with Zymoseptoria tritici (setting [2]), in the assay on Puccinia triticina (setting [3]) and in the assay on Puccinia triticina (setting [4]) were under 80%, over 80% and over 80%, respectively.

On to `CCCO[C@H]1[C@H](C)OC(=O)[C@@H](NC(=O)c2nccc(OC)c2OCOC(C)=O)CCOC[C@@H]1Oc1ccccc1` [Compound 42], for which the pest or weed control at 121.5 g/ha in the assay on Zymoseptoria tritici (setting [5]) was under 80%; in the assay on Zymoseptoria tritici (setting [6]), under 80%; in the assay on Puccinia triticina (setting [3]), over 80%; in the assay on Puccinia triticina (setting [4]), under 80%.

`CCOCC(=O)OCOc1c(OC)ccnc1C(=O)N[C@H]1COCC[C@H](Cc2ccc(F)cc2)[C@@H](OCC2CC2)[C@H](C)OC1=O` [Compound 78]: the pest or weed control at 121.5 g/ha is over 80% in the assay on Zymoseptoria tritici (setting [5]), under 80% in the assay on Zymoseptoria tritici (setting [6]), over 80% in the assay with Puccinia triticina (setting [3]) and over 80% with Puccinia triticina (setting [4]).

For `COc1ccnc(C(=O)N[C@H]2CCCC[C@H](Oc3ccccc3)[C@@H](OC3CCCC3)[C@H](C)OC2=O)c1OCOC(C)=O` [Compound 36], the pest or weed control at 121.5 g/ha was under 80% with Zymoseptoria tritici (setting [5]), under 80% with Zymoseptoria tritici (setting [6]), over 80% in the assay with Puccinia triticina (setting [3]) and over 80% in the assay on Puccinia triticina (setting [4]).

For the molecule `COc1ccc(C[C@H]2CCOC[C@H](NC(=O)c3nccc(OC)c3OC(C)=O)C(=O)O[C@@H](C)[C@@H]2Oc2ccccc2)cc1` [Compound 65], the pest or weed control at 121.5 g/ha in the assay with Zymoseptoria tritici (setting [5]) is over 80%; in the assay on Zymoseptoria tritici (setting [6]), under 80%; with Puccinia triticina (setting [3]) it was over 80%; in the assay with Puccinia triticina (setting [4]), under 80%.

For `CCCO[C@H]1CCCC[C@H](NC(=O)c2nccc(OC)c2O)C(=O)O[C@@H](C)[C@@H]1Oc1ccccc1` [Compound 100], the pest or weed control at 100 ppm in the assay on Zymoseptoria tritici (setting [1]), in the assay on Zymoseptoria tritici (setting [2]), in the assay with Puccinia triticina (setting [3]) and with Puccinia triticina (setting [4]) was over 80% throughout.

As to `CCCO[C@H]1[C@H](C)OC(=O)[C@@H](NC(=O)c2nccc(OC)c2O)CCCC[C@@H]1Oc1ccccc1` [Compound 97], the pest or weed control at 100 ppm with Zymoseptoria tritici (setting [1]) is over 80%; with Zymoseptoria tritici (setting [2]) it was under 80%; in the assay on Puccinia triticina (setting [3]), over 80%; in the assay on Puccinia triticina (setting [4]), over 80%.

For `COc1ccnc(C(=O)N[C@H]2CCCC[C@H](CC3CCCC3)[C@@H](OC(=O)C(C)C)[C@H](C)OC2=O)c1OCOC(C)=O` [Compound 54], the pest or weed control at 121.5 g/ha was over 80% with Zymoseptoria tritici (setting [5]), over 80% in the assay on Puccinia triticina (setting [3]) and under 80% in the assay with Puccinia triticina (setting [4]).

`COc1ccnc(C(=O)N[C@H]2COCC[C@H](Cc3ccc(F)cc3)[C@@H](OC(=O)C(C)C)[C@H](C)OC2=O)c1O` [Compound 134]: the pest or weed control at 100 ppm in the assay with Zymoseptoria tritici (setting [1]) is over 80%; with Zymoseptoria tritici (setting [2]), over 80%; in the assay with Puccinia triticina (setting [3]), over 80%; in the assay with Puccinia triticina (setting [4]), under 80%.

With `CCCCO[C@H]1CCOC[C@H](NC(=O)c2nccc(OC)c2O)C(=O)O[C@@H](C)[C@@H]1OC(=O)c1ccccc1` [Compound 84], the pest or weed control at 100 ppm is under 80% with Zymoseptoria tritici (setting [1]), over 80% in the assay with Zymoseptoria tritici (setting [2]), over 80% in the assay on Puccinia triticina (setting [3]) and over 80% in the assay with Puccinia triticina (setting [4]).

On to `COc1ccnc(C(=O)N[C@H]2CCOC[C@H](OC(=O)C(C)C)[C@@H](Oc3ccccc3)[C@H](C)OC2=O)c1OCOC(C)=O` [Compound 44], for which the pest or weed control at 121.5 g/ha with Zymoseptoria tritici (setting [5]) is under 80%; with Zymoseptoria tritici (setting [6]) it was under 80%; with Puccinia triticina (setting [3]), over 80%; with Puccinia triticina (setting [4]), over 80%.

As to `COc1ccnc(C(=O)N[C@H]2CCCC[C@H](Cc3ccccc3)[C@@H](Oc3ccccc3)[C@H](C)OC2=O)c1OCOC(C)=O` [Compound 62], the pest or weed control at 121.5 g/ha was over 80% in the assay with Zymoseptoria tritici (setting [5]), over 80% in the assay with Zymoseptoria tritici (setting [6]), over 80% with Puccinia triticina (setting [3]) and under 80% in the assay on Puccinia triticina (setting [4]).

`COc1ccnc(C(=O)N[C@H]2CCCC[C@H](CC3CCCC3)[C@@H](Oc3ccccc3)[C@H](C)OC2=O)c1OC(C)=O` [Compound 52]: the pest or weed control at 121.5 g/ha is over 80% with Zymoseptoria tritici (setting [5]), over 80% with Puccinia triticina (setting [3]) and under 80% in the assay with Puccinia triticina (setting [4]).

With `CCC[C@H]1CCCC[C@H](NC(=O)c2nccc(OC)c2OCOC(C)=O)C(=O)O[C@@H](C)[C@@H]1OCC(C)C` [compound 30, ((2-(((3S,8S,9R,10S)-9-isobutoxy-10-methyl-2-oxo-8-propyloxecan-3-yl)carbamoyl)-4-methoxypyridin-3-yl)oxy)methyl acetate], the pest or weed control at 121.5 g/ha is under 80% with Zymoseptoria tritici (setting [5]), under 80% in the assay on Zymoseptoria tritici (setting [6]), over 80% in the assay with Puccinia triticina (setting [3]) and under 80% in the assay on Puccinia triticina (setting [4]).

For `COc1ccnc(C(=O)N[C@H]2COCC[C@H](Cc3ccc(F)cc3)[C@@H](OCC3CC3)[C@H](C)OC2=O)c1OC(C)=O` [Compound 77], the pest or weed control at 121.5 g/ha was over 80% with Zymoseptoria tritici (setting [5]), under 80% in the assay with Zymoseptoria tritici (setting [6]), over 80% in the assay on Puccinia triticina (setting [3]) and over 80% in the assay with Puccinia triticina (setting [4]).

Source of the values: patent US20180002319A1, “MACROCYCLIC PICOLINAMIDE COMPOUNDS WITH FUNGICIDAL ACTIVITY” (DOW AGROSCIENCES LLC, priority 2014, published 2018).
